Data as given in paper PMC10584170, “Machine learning-based phenotypic imaging to characterise the targetable biology of Plasmodium falciparum male gametocytes for the development of transmission-blocking antimalarials” (PLOS Pathogens, 2023).
Blank lines part the entries; values can stand above or below the compound they belong to.

Key:
HepG2 cells = experiment: HepG2 cytotoxicity counter-screen; conditions: for Mean TOX: mean of the HepG2 TOX50 values; for DGFA Tox50 HepG2: HepG2 value reported with the DGFA screen
[1] = system: P. falciparum female gametocytes; experiment: P. falciparum Dual Gamete Formation Assay (PfDGFA), female readout (Pfs25-positive female gametes); assay type: cell-based, Plasmodium falciparum NF54; conditions: for IC50: this study, read-out: Pf DGFA IC50 FEM; for Average inhibition female (%): average of replicates; for % inhibition female (individual replicates) R1: replicate R1; for % inhibition female (individual replicates) R3: replicate R3; for % inhibition female (individual replicates) R4: replicate R4
Method in brief: (§1)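 Two sex-specific readouts come from one well: male exflagellation centres recorded by brightfield video right after activation, and female gametes scored by Cy3-anti-Pfs25 fluorescence after 24 h at 28°C.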

[2] = system: P. falciparum male gametocytes; experiment: P. falciparum Dual Gamete Formation Assay (PfDGFA), male readout (exflagellation); assay type: cell-based, Plasmodium falciparum NF54; conditions: for IC50: this study, read-out: Pf DGFA IC50 MALE; for Average inhibition male (%): average of replicates; for % inhibition male (individual replicates) R1: replicate R1; for % inhibition male (individual replicates) R3: replicate R3; for % inhibition male (individual replicates) R4: replicate R4; for Activity: hit = >50% inhibition in male or female readout in at least 3 replicates, 0 = no class assigned
Method in brief: as §1

[3] = 2µM, 24h preincubation with gametocytes prior to induction of gametogenesis
[4] = 2µM, 24h preincubation, hits selected on >50% inhibition in the female readout across replicates
[5] = 2µM, 24h preincubation, hits selected on >50% inhibition in the male readout across replicates
[6] = PfDGFA at 2µM, 24h preincubation
[7] = PfDGFA at 2µM, 24h preincubation with gametocytes
[8] = 2µM, 24h preincubation, number of replicates with >50% inhibition in the female readout
[9] = 2µM, 24h preincubation, number of replicates with >50% inhibition in the male readout
[10] = PfDGFA at 2µM, 24h preincubation with gametocytes prior to induction of gametogenesis
[11] = 2µM, 24h preincubation with gametocytes

SMILES: C=CCNc1cc(-c2ccccn2)nc(-c2ccccn2)n1 [TC01]
- Mean TOX (HepG2 cells): 12.58 µM
- Cytotox ratio Pf Female [1]: 2.6
- IC50 [1]: 4.89 µM
- Cytotox ratio Pf Male [2]: 13.8
- IC50 [2]: 0.91 µM

- IC50 [2]: 6.75 µM
SMILES: c1ccc2[nH]c(CN(Cc3nc4ccccc4[nH]3)Cc3nc4ccccc4[nH]3)nc2c1 [TC03]
- DGFA Tox50 HepG2 (HepG2 cells): 100 µM
- Mean TOX (HepG2 cells): 100.00 µM
- Cytotox ratio Pf Female [1]: 10.0
- Cytotox ratio Pf Male [2]: 14.8

- IC50 [1]: 0.7 µM
- IC50 [2]: 0.7 µM
SMILES: FC(F)(F)c1cccc(NC(=S)NN=Cc2ccccn2)c1 [TC06]
- DGFA Tox50 HepG2 (HepG2 cells): 100 µM
- Mean TOX (HepG2 cells): 100.00 µM
- Cytotox ratio Pf Female [1]: 142.9
- Cytotox ratio Pf Male [2]: 142.9

- IC50 [2]: 1.72 µM
SMILES: O=C(Cc1cccc(O)c1)NCC(Cc1ccc(O)cc1)c1ccccc1 (stereo not shown) [TC08]
- DGFA Tox50 HepG2 (HepG2 cells): 100 µM
- Mean TOX (HepG2 cells): 100.00 µM
- Cytotox ratio Pf Female [1]: 10.0
- Cytotox ratio Pf Male [2]: 58.1

SMILES: COc1cccc(CCN(Cc2ccccc2-c2ccc(CNC3CC(C)(C)NC(C)(C)C3)cc2)C(=O)NC2CCCCC2)c1.Cl [TCMDC-141577]
- Average inhibition female (%) [1, 3]: 13.0%
- % inhibition female (individual replicates) R1 [1, 3]: 16.8%
- % inhibition female (individual replicates) R3 [1, 3]: -15.5%
- % inhibition female (individual replicates) R4 [1, 3]: 31.4%
- HitlevelF [1, 4]: 0
- Average inhibition male (%) [2, 3]: 1.5%
- % inhibition male (individual replicates) R1 [2, 3]: 8.1%
- % inhibition male (individual replicates) R3 [2, 3]: -2.0%
- % inhibition male (individual replicates) R4 [2, 3]: 2.2%
- HitlevelM [2, 5]: 0
- Activity [2, 6]: 0

SMILES: CN(C)CCCNc1nccc(N(C)c2ccc(NC(=O)Nc3cc(C(F)(F)F)ccc3F)cc2)n1.O=C(O)C(F)(F)F [TCMDC-141633]
- Average inhibition female (%) [1, 3]: 13.3%
- % inhibition female (individual replicates) R1 [1, 3]: 14.0%
- % inhibition female (individual replicates) R3 [1, 3]: 9.3%
- % inhibition female (individual replicates) R4 [1, 3]: 15.1%
- HitlevelF [1, 4]: 0
- Average inhibition male (%) [2, 3]: 62.2%
- % inhibition male (individual replicates) R1 [2, 3]: 40.8%
- % inhibition male (individual replicates) R4 [2, 3]: 63.9%
- HitlevelM [2, 5]: 2
- Activity [2, 6]: 0

SMILES: O=C(O)C(F)(F)F.c1ccc(CCNCc2ccc(-c3ccc(CNC4CCN(Cc5ccccc5)CC4)cc3)nc2)cc1 [TCMDC-141649]
- Average inhibition female (%) [1, 3]: 11.9%
- % inhibition female (individual replicates) R1 [1, 3]: 20.3%
- % inhibition female (individual replicates) R3 [1, 3]: -13.0%
- % inhibition female (individual replicates) R4 [1, 3]: 18.4%
- HitlevelF [1, 4]: 0
- Average inhibition male (%) [2, 3]: 11.3%
- % inhibition male (individual replicates) R1 [2, 3]: 9.5%
- % inhibition male (individual replicates) R3 [2, 3]: -1.4%
- % inhibition male (individual replicates) R4 [2, 3]: 30.2%
- HitlevelM [2, 5]: 0
- Activity [2, 6]: 0

SMILES: CCCCCCN1CCC(NCc2ccc(OCCN3CCCC3)cc2)CC1.O=C(O)C(F)(F)F [TCMDC-141663]
- Average inhibition female (%) [1, 3]: 15.8%
- % inhibition female (individual replicates) R1 [1, 3]: 20.0%
- % inhibition female (individual replicates) R3 [1, 3]: 13.5%
- % inhibition female (individual replicates) R4 [1, 3]: 15.0%
- HitlevelF [1, 4]: 0
- Average inhibition male (%) [2, 3]: 7.0%
- % inhibition male (individual replicates) R1 [2, 3]: 26.8%
- % inhibition male (individual replicates) R3 [2, 3]: -12.7%
- % inhibition male (individual replicates) R4 [2, 3]: -11.8%
- HitlevelM [2, 5]: 0
- Activity [2, 6]: 0

SMILES: CN1CCc2cc(NS(=O)(=O)c3ccc(-c4ccc(Cl)cc4)cc3)c(OCCCN3CCCCC3)cc2CC1.Cl [TCMDC-141754]
- Average inhibition female (%) [1, 7]: 21.5%
- % inhibition female (individual replicates) R1 [1, 7]: 25.0%
- % inhibition female (individual replicates) R3 [1, 7]: 13.0%
- % inhibition female (individual replicates) R4 [1, 7]: 19.2%
- HitlevelF ([1]; number of replicates with >50% inhibition in the female readout, 2µM): 0
- Average inhibition male (%) [2, 7]: 76.4%
- % inhibition male (individual replicates) R1 [2, 7]: 81.6%
- % inhibition male (individual replicates) R3 [2, 7]: 46.2%
- % inhibition male (individual replicates) R4 [2, 7]: 86.2%
- HitlevelM ([2]; number of replicates with >50% inhibition in the male readout, 2µM): 3

SMILES: Cl.Clc1ccc(C2CCN(CCCOc3ccc4c(c3)CCNCC4)CC2)cc1 [TCMDC-141782]
- Average inhibition female (%) [1, 3]: 28.4%
- % inhibition female (individual replicates) R1 [1, 3]: 14.5%
- % inhibition female (individual replicates) R3 [1, 3]: 2.3%
- % inhibition female (individual replicates) R4 [1, 3]: 70.0%
- HitlevelF [1, 8]: 1
- Average inhibition male (%) [2, 3]: 47.0%
- % inhibition male (individual replicates) R1 [2, 3]: 45.1%
- % inhibition male (individual replicates) R3 [2, 3]: 27.8%
- % inhibition male (individual replicates) R4 [2, 3]: 64.2%
- HitlevelM [2, 9]: 2

SMILES: Cc1cc(F)ccc1-c1nc(NCCCNCCc2ccccc2)nc2c1ccc(=O)n2-c1c(F)cccc1F.O=C(O)C(F)(F)F [TCMDC-141804]
- Average inhibition female (%) [1, 3]: 33.0%
- % inhibition female (individual replicates) R1 [1, 3]: 27.9%
- % inhibition female (individual replicates) R3 [1, 3]: 6.6%
- % inhibition female (individual replicates) R4 [1, 3]: 62.0%
- HitlevelF [1, 8]: 1
- Average inhibition male (%) [2, 3]: 11.7%
- % inhibition male (individual replicates) R1 [2, 3]: 17.7%
- % inhibition male (individual replicates) R3 [2, 3]: -28.8%
- % inhibition male (individual replicates) R4 [2, 3]: 37.6%
- HitlevelM [2, 9]: 0

SMILES: Cc1c(Cn2ncc(N3CCC(N)CC3)c(Cl)c2=O)cccc1NC(=O)Nc1ccc(-c2ccccc2)cc1.O=C(O)C(F)(F)F [TCMDC-141931]
- Average inhibition female (%) [1, 3]: 48.9%
- % inhibition female (individual replicates) R1 [1, 3]: 32.2%
- % inhibition female (individual replicates) R3 [1, 3]: 19.7%
- % inhibition female (individual replicates) R4 [1, 3]: 64.5%
- HitlevelF [1, 8]: 2
- Average inhibition male (%) [2, 3]: 36.5%
- % inhibition male (individual replicates) R1 [2, 3]: 42.7%
- % inhibition male (individual replicates) R3 [2, 3]: 3.4%
- % inhibition male (individual replicates) R4 [2, 3]: 40.2%
- HitlevelM [2, 9]: 1

SMILES: Nc1nc(N)c2cc(CNc3ccc(Cl)c(Cl)c3)ccc2n1 [TCMDC-141974]
- % inhibition female (individual replicates) R1 [1, 10]: 1.5%
- % inhibition female (individual replicates) R3 [1, 10]: -5.9%
- % inhibition female (individual replicates) R4 [1, 10]: 0.5%
- Average inhibition female (%) [1, 6]: -1.4%
- % inhibition male (individual replicates) R1 [2, 10]: 19.3%
- % inhibition male (individual replicates) R3 [2, 10]: 26.8%
- % inhibition male (individual replicates) R4 [2, 10]: 9.5%
- Average inhibition male (%) [2, 6]: 20.3%

SMILES: COc1ccc2c(c1)nc(CNC(=N)N)n2Cc1ccc(Cl)cc1.Cl [TCMDC-142042]
- Average inhibition female (%) [1, 3]: 8.7%
- % inhibition female (individual replicates) R1 [1, 3]: 5.3%
- % inhibition female (individual replicates) R3 [1, 3]: -8.2%
- % inhibition female (individual replicates) R4 [1, 3]: 2.2%
- HitlevelF [1, 4]: 0
- Average inhibition male (%) [2, 3]: -2.9%
- % inhibition male (individual replicates) R1 [2, 3]: -15.5%
- % inhibition male (individual replicates) R3 [2, 3]: -14.5%
- % inhibition male (individual replicates) R4 [2, 3]: 30.2%
- HitlevelM [2, 5]: 0
- Activity [2, 6]: 0

SMILES: Cc1ccc2nc(C)cc(N/N=C/c3ccc([N+](=O)[O-])cc3)c2c1 [TCMDC-142070]
- % inhibition female (individual replicates) R1 [1, 10]: 9.6%
- % inhibition female (individual replicates) R3 [1, 10]: -4.2%
- % inhibition female (individual replicates) R4 [1, 10]: -9.4%
- Average inhibition female (%) [1, 6]: 1.3%
- % inhibition male (individual replicates) R1 [2, 10]: -12.6%
- % inhibition male (individual replicates) R3 [2, 10]: -7.9%
- % inhibition male (individual replicates) R4 [2, 10]: 12.9%
- Average inhibition male (%) [2, 6]: -0.848%

SMILES: CC1(C)N=C(N)N=C(N)N1c1ccc(Cl)c(Cl)c1.Cl [TCMDC-142180]
- % inhibition female (individual replicates) R1 [1, 10]: -5.5%
- % inhibition female (individual replicates) R3 [1, 10]: -6.4%
- % inhibition female (individual replicates) R4 [1, 10]: 1.4%
- Average inhibition female (%) [1, 6]: -4.7%
- % inhibition male (individual replicates) R1 [2, 10]: 8.4%
- % inhibition male (individual replicates) R4 [2, 10]: -27.5%
- Average inhibition male (%) [2, 6]: 6.9%

SMILES: CCOc1ccc2c(=NN=Cc3ccc(OC)c(OC)c3)cc(C)[nH]c2c1 [TCMDC-142206]
- Average inhibition female (%) [1, 3]: 22.4%
- % inhibition female (individual replicates) R1 [1, 3]: 27.0%
- % inhibition female (individual replicates) R3 [1, 3]: -3.4%
- % inhibition female (individual replicates) R4 [1, 3]: 40.7%
- HitlevelF [1, 8]: 0
- Average inhibition male (%) [2, 3]: 11.1%
- % inhibition male (individual replicates) R1 [2, 3]: 9.5%
- % inhibition male (individual replicates) R3 [2, 3]: 6.4%
- % inhibition male (individual replicates) R4 [2, 3]: 28.2%
- HitlevelM [2, 9]: 0

SMILES: Cl.Nc1c(I)cc(C(=O)Nc2ccc3nc4c(c(N)c3c2)CCCC4)cc1I [TCMDC-142289]
- Average inhibition female (%) [1, 11]: 49.6%
- % inhibition female (individual replicates) R1 [1, 11]: 51.7%
- % inhibition female (individual replicates) R3 [1, 11]: 34.7%
- % inhibition female (individual replicates) R4 [1, 11]: 48.7%
- Average inhibition male (%) [2, 11]: 92.1%
- % inhibition male (individual replicates) R1 [2, 11]: 89.6%
- % inhibition male (individual replicates) R4 [2, 11]: 96.1%

SMILES: O=c1c(NCCCN(Cc2ccc(F)cc2)c2ccccn2)c(NCc2ccncc2)c1=O [TCMDC-142310]
- % inhibition female (individual replicates) R1 [1, 10]: 6.5%
- % inhibition female (individual replicates) R3 [1, 10]: -28.2%
- % inhibition female (individual replicates) R4 [1, 10]: -7.1%
- Average inhibition female (%) [1, 6]: -7.2%
- % inhibition male (individual replicates) R1 [2, 10]: -3.0%
- % inhibition male (individual replicates) R3 [2, 10]: -19.8%
- % inhibition male (individual replicates) R4 [2, 10]: -2.5%
- Average inhibition male (%) [2, 6]: -8.8%
